# Laboratory results taken from US6737383B1, “Herbicidal oxadiazolidines” (priority 1999, dated 2004).
# Experiments:
# [1] = system: giant foxtail; assay: Test B pre/postemergence giant foxtail; format: in vivo, Setaria faberii; details: for Giant foxtail plant response rating (0 to 10 scale): 0 is no effect
# Summary of the method: (§1)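 Response is a visual 0-to-10 score relative to untreated plants, where 0 means no effect and 10 means complete control, taken twelve to sixteen days after application. Treatments went onto soil at planting and onto foliage of 1- to 4-leaf plants, using a surfactant-containing non-phytotoxic solvent.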
# [2] = system: morningglory; assay: Test B pre/postemergence morningglory; format: in vivo, Ipomoea hederacea; details: for Morningglory plant response rating (0 to 10 scale): 0 is no effect
# Summary of the method: as §1
# [3] = system: rice; assay: Test B flood test rice; format: in vivo, Oryza sativa
# Summary of the method: (§2)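 Flood test on plants grown to the 2-leaf stage; treated plants kept in greenhouse twelve to sixteen days, then visually rated against controls on a 0 (no effect) to 10 (complete control) scale.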
# [4] = system: duck salad; assay: Test B flood test duck salad; format: in vivo, Heteranthera limosa; details: for Plant response rating, Ducksalad (0 to 10 scale, 0 is no effect, 10 is complete control) / Ducksalad plant response rating (0 to 10 scale, 0 is no effect, 10 is complete control): visual evaluation after twelve to sixteen days; for Ducksalad plant response rating (0 to 10 scale, 0 is no effect, 10 is complete control): under heading Pre-emergence
# Summary of the method: as §2
# [5] = Postemergence, Rate 125 g/ha, scale of 0 to 10 where 0 is no effect and 10 is complete control
# [6] = Preemergence, Rate 62 g/ha, scale 0 to 10 (0 no effect, 10 complete control)
# [7] = Preemergence, Rate 125 g/ha, 10 is complete control
# [8] = Preemergence, Rate 250 g/ha, scale 0 to 10, 0 is no effect, 10 is complete control
# [9] = Preemergence, Rate 500 g/ha, scale 0 to 10 (0 no effect, 10 complete control)
# [10] = Rate 62 g/ha, Postemergence, scale of 0 to 10 where 0 is no effect and 10 is complete control
# [11] = Rate 250 g/ha, Postemergence, scale 0 to 10, 0 is no effect, 10 is complete control
# [12] = Rate 500 g/ha, Postemergence, scale 0 to 10
# [13] = Postemergence (flood test species), Rate 125 g/ha, scale of 0 to 10 where 0 is no effect and 10 is complete control
# [14] = Rate 250 g/ha, Postemergence (flood test), scale 0 to 10, 0 is no effect, 10 is complete control
# [15] = Rate 500 g/ha, listed under Postemergence (flood test species), scale 0 to 10
# [16] = Postemergence, Rate 250 g/ha, scale 0 to 10, 0 is no effect, 10 is complete control
# [17] = Postemergence, Rate 500 g/ha, scale of 0 to 10 where 0 is no effect and 10 is complete control
# [18] = Preemergence, Rate 125 g/ha, scale of 0 to 10 where 0 is no effect and 10 is complete control
# [19] = Preemergence, Rate 500 g/ha, scale 0 to 10, 0 is no effect, 10 is complete control
# [20] = Rate 125 g/ha, Postemergence, scale 0 to 10, 0 is no effect, 10 is complete control
# [21] = Postemergence section (flood test species), Rate 500 g/ha, scale of 0 to 10 where 0 is no effect and 10 is complete control
# [22] = Rate 125 g/ha, Postemergence section (flood test species), scale 0 to 10, 0 is no effect, 10 is complete control
# [23] = flood test species, listed under Postemergence, Rate 250 g/ha, scale 0 to 10, 0 is no effect, 10 is complete control
# [24] = Preemergence, Rate 62 g/ha, scale of 0 to 10 where 0 is no effect and 10 is complete control
# [25] = Preemergence, Rate 250 g/ha, scale of 0 to 10 where 0 is no effect and 10 is complete control
# [26] = Preemergence, Rate 500 g/ha, scale of 0 to 10 where 0 is no effect and 10 is complete control
# [27] = Rate 125 g/ha, Preemergence, scale of 0 to 10 where 0 is no effect and 10 is complete control
# [28] = Rate 500 g/ha, Postemergence, scale 0 to 10, 0 no effect, 10 complete control
# [29] = Rate 62 g/ha, headed Pre-emergence (flood test species), scale 0 to 10 (0 no effect, 10 complete control)
# [30] = Rate 125 g/ha, Pre-emergence, flood test species, scale 0 to 10 where 0 is no effect and 10 is complete control
# [31] = Rate 250 g/ha, Pre-emergence, flood-test species, scale 0 to 10, 0 is no effect, 10 is complete control
# [32] = Rate 500 g/ha, Pre-emergence, flood test species, scale 0 to 10 (0 no effect, 10 complete control)
# [33] = Rate 125 g/ha, Postemergence, scale 0 to 10
# [34] = Rate 500 g/ha, headed Pre-emergence (flood test species), scale 0 to 10 (0 no effect, 10 complete control)
# [35] = Postemergence, Rate 62 g/ha, scale 0 to 10, 0 is no effect, 10 is complete control
# [36] = Postemergence, Rate 250 g/ha, scale of 0 to 10, 0 is no effect, 10 is complete control
# [37] = Preemergence, Rate 250 g/ha, scale 0 to 10 (0 no effect, 10 complete control)
# [38] = Rate 500 g/ha, Postemergence, scale 0 to 10, 0 is no effect, 10 is complete control
# [39] = Rate 250 g/ha, Pre-emergence (flood test species), scale 0 to 10, 0 is no effect, 10 is complete control
# [40] = Rate 500 g/ha, Pre-emergence section of Table B, 0 to 10 scale (0 no effect, 10 complete control)
# [41] = Rate 62 g/ha, flood test species, Pre-emergence
# [42] = Rate 125 g/ha, flood test species
structure (smiles),measurement,setting,value
CCOC(=O)Cn1c(=O)on(C(=O)N(c2ccc(F)cc2)C(C)C)c1=O [Compound 128],Giant foxtail plant response rating,[1]; [5],0
same,Giant foxtail plant response rating,[1]; [6],0
same,Giant foxtail plant response rating (0 to 10 scale),[1]; [7],0
same,Giant foxtail plant response rating,[1]; [8],0
same,Giant foxtail plant response rating,[1]; [9],8
same,Giant foxtail plant response rating,[1]; [10],0
same,"Plant response rating, Giant foxtail",[1]; [11],0
same,Giant foxtail plant response rating,[1]; [12],0
same,Morningglory plant response rating,[2]; [5],0
same,Morningglory plant response rating,[2]; [6],0
same,Morningglory plant response rating (0 to 10 scale),[2]; [7],0
same,Morningglory plant response rating,[2]; [8],0
same,Morningglory plant response rating,[2]; [9],0
same,Morningglory plant response rating,[2]; [10],0
same,"Plant response rating, Morningglory",[2]; [11],0
same,Morningglory plant response rating,[2]; [12],0
same,Rice plant response rating,[3]; [13],0
same,"Plant response rating, Rice",[3]; [14],0
same,Rice plant response rating,[3]; [15],0
same,Ducksalad plant response rating,[4]; [13],0
same,"Plant response rating, Ducksalad",[4]; [14],0
same,Ducksalad plant response rating,[4]; [15],0
CC(C)N(C(=O)n1oc(=O)n(CCl)c1=O)c1ccc(Cl)cc1 [Compound 422],"Plant response rating, Giant foxtail",[1]; [16],0
same,Giant foxtail plant response rating,[1]; [17],0
same,"Plant response rating, Giant foxtail",[1]; [6],0
same,"Plant response rating, Giant foxtail",[1]; [18],0
same,Giant foxtail plant response rating,[1]; [8],0
same,Giant foxtail plant response rating,[1]; [19],0
same,Giant foxtail plant response rating,[1]; [10],0
same,Giant foxtail plant response rating,[1]; [20],0
same,"Plant response rating, Morningglory",[2]; [16],0
same,Morningglory plant response rating,[2]; [17],0
same,"Plant response rating, Morningglory",[2]; [6],0
same,"Plant response rating, Morningglory",[2]; [18],0
same,Morningglory plant response rating,[2]; [8],0
same,Morningglory plant response rating,[2]; [19],0
same,Morningglory plant response rating,[2]; [20],0
same,Rice plant response rating,[3]; [21],0
same,Rice plant response rating,[3]; [22],0
same,"Plant response rating, Rice",[3]; [23],0
same,Ducksalad plant response rating,[4]; [21],0
same,Ducksalad plant response rating,"[4]; Rate 62 g/ha, Postemergence (flood test species), scale of 0 to 10 where 0 is no effect and 10 is complete control",0
same,Ducksalad plant response rating,[4]; [22],0
same,"Plant response rating, Ducksalad",[4]; [23],0
CCC(C)N(C(=O)n1oc(=O)n(-c2ccccc2C)c1=O)c1ccc(F)cc1 (centres unmarked) [Compound 239],Giant foxtail plant response rating,[1]; [24],4
same,Giant foxtail plant response rating,[1]; [25],10
same,"Plant response rating, Giant foxtail",[1]; [26],10
same,Giant foxtail plant response rating,[1]; [10],0
same,Giant foxtail plant response rating,[1]; [27],10
same,"Plant response rating (0 to 10; 0 is no effect, 10 is complete control), Giant foxtail","[1]; Rate 250 g/ha, Postemergence",1
same,Giant foxtail plant response rating,[1]; [28],6
same,Morningglory plant response rating,[2]; [24],0
same,Morningglory plant response rating,[2]; [25],0
same,"Plant response rating, Morningglory",[2]; [26],0
same,Morningglory plant response rating,[2]; [10],1
same,Morningglory plant response rating,[2]; [27],0
same,"Plant response rating (0 to 10; 0 is no effect, 10 is complete control), Morningglory","[2]; Rate 250 g/ha, Postemergence",3
same,Morningglory plant response rating,[2]; [28],9
same,Rice plant response rating,[3]; [29],0
same,Rice plant response rating,[3]; [30],0
same,Rice plant response rating,[3]; [31],0
same,Rice plant response rating,[3]; [32],0
same,Ducksalad plant response rating,[4]; [29],0
same,Ducksalad plant response rating,[4]; [30],0
same,Ducksalad plant response rating,[4]; [31],0
same,Ducksalad plant response rating,[4]; [32],0
Cc1ccccc1-n1c(=O)on(C(=O)N(c2ccc(-c3ccccc3)cc2)C(C)C)c1=O [Compound 187],Giant foxtail plant response rating,[1]; [24],0
same,Giant foxtail plant response rating (0 to 10 scale),[1]; [7],0
same,Giant foxtail plant response rating,[1]; [8],0
same,Giant foxtail plant response rating,[1]; [9],0
same,Giant foxtail plant response rating,[1]; [10],0
same,Giant foxtail plant response rating,[1]; [33],0
same,"Plant response rating (0 to 10; 0 is no effect, 10 is complete control), Giant foxtail","[1]; Rate 250 g/ha, Postemergence",0
same,Giant foxtail plant response rating,[1]; [12],0
same,Morningglory plant response rating,[2]; [24],0
same,Morningglory plant response rating (0 to 10 scale),[2]; [7],0
same,Morningglory plant response rating,[2]; [8],0
same,Morningglory plant response rating,[2]; [9],0
same,Morningglory plant response rating,[2]; [10],0
same,Morningglory plant response rating,[2]; [33],0
same,"Plant response rating (0 to 10; 0 is no effect, 10 is complete control), Morningglory","[2]; Rate 250 g/ha, Postemergence",0
same,Morningglory plant response rating,[2]; [12],0
same,Rice plant response rating,[3]; [29],0
same,Rice plant response rating,[3]; [30],0
same,Rice plant response rating,[3]; [31],0
same,"Plant response rating, Rice",[3]; [34],0
same,Ducksalad plant response rating,[4]; [29],0
same,Ducksalad plant response rating,[4]; [30],0
same,Ducksalad plant response rating,[4]; [31],0
same,"Plant response rating, Ducksalad",[4]; [34],0
CC[C@@H](C)n1c(=O)on(C(=O)N(c2ccc(Cl)cc2)C(C)C)c1=O [Compound 665],"Plant response rating, Giant foxtail",[1]; [35],2
same,Giant foxtail plant response rating,[1]; [5],4
same,Giant foxtail plant response rating,[1]; [36],8
same,Giant foxtail plant response rating,[1]; [24],9
same,Giant foxtail plant response rating,[1]; [18],10
same,"Plant response rating, Giant foxtail",[1]; [37],10
same,"Plant response rating, Giant foxtail",[1]; [26],10
same,Giant foxtail plant response rating,[1]; [38],9
same,"Plant response rating, Morningglory",[2]; [35],4
same,Morningglory plant response rating,[2]; [5],6
same,Morningglory plant response rating,[2]; [36],6
same,Morningglory plant response rating,[2]; [24],0
same,Morningglory plant response rating,[2]; [18],0
same,"Plant response rating, Morningglory",[2]; [37],0
same,"Plant response rating, Morningglory",[2]; [26],4
same,Morningglory plant response rating,[2]; [38],8
same,"Plant response rating, Rice (0 to 10 scale, 0 is no effect, 10 is complete control)","[3]; Rate 62 g/ha, flood test species, Pre-emergence, visual evaluation after twelve to sixteen days",0
same,"Rice plant response rating (0 to 10 scale, 0 is no effect, 10 is complete control)","[3]; Rate 125 g/ha, under heading Pre-emergence, flood test species, visual evaluation after twelve to sixteen days",0
same,Rice plant response rating,[3]; [39],0
same,Rice plant response rating,[3]; [40],0
same,"Plant response rating, Ducksalad (0 to 10 scale, 0 is no effect, 10 is complete control)",[4]; [41],0
same,"Ducksalad plant response rating (0 to 10 scale, 0 is no effect, 10 is complete control)",[4]; [42],0
same,Ducksalad plant response rating,[4]; [39],0
same,Ducksalad plant response rating,[4]; [40],0
CCCCCn1c(=O)on(C(=O)N(c2ccc(F)cc2F)C(C)C)c1=O [Compound 636],"Plant response rating, Giant foxtail",[1]; [35],2
same,"Plant response rating, Giant foxtail",[1]; [5],7
same,Giant foxtail plant response rating,[1]; [36],9
same,"Plant response rating, Giant foxtail",[1]; [17],9
same,Giant foxtail plant response rating,[1]; [24],9
same,Giant foxtail plant response rating,[1]; [18],10
same,"Plant response rating, Giant foxtail",[1]; [37],10
same,"Plant response rating, Giant foxtail",[1]; [26],10
same,"Plant response rating, Morningglory",[2]; [35],2
same,"Plant response rating, Morningglory",[2]; [5],2
same,Morningglory plant response rating,[2]; [36],6
same,"Plant response rating, Morningglory",[2]; [17],6
same,Morningglory plant response rating,[2]; [24],0
same,Morningglory plant response rating,[2]; [18],0
same,"Plant response rating, Morningglory",[2]; [37],0
same,"Plant response rating, Morningglory",[2]; [26],2
same,"Plant response rating, Ducksalad (0 to 10 scale, 0 is no effect, 10 is complete control)",[4]; [41],0
same,"Ducksalad plant response rating (0 to 10 scale, 0 is no effect, 10 is complete control)",[4]; [42],0
same,Ducksalad plant response rating,[4]; [39],0
same,Ducksalad plant response rating,[4]; [40],0
